Patent US7378397B2 (The Provost, Fellows and Scholars of the College of the …, priority 2000, dated 2008)
In brackets after ≈: the same amount, converted by molar mass. Entries after “also recorded” stand apart in the source; their conditions may differ. Where a SMILES comes first, the peptide text is derived from it. [ ]: non-standard residue; d: D form. The star is where a group is joined. AMC = Cc1cc(=O)oc2cc(N*)ccc12; pGlu = O=C1CC[C@@H](C(=O)O)N1

Tests used:
[1] = target: T1, TRH-DE (Sus scrofa, UniProt A0A287AP33); assay: HPLC assay of peptide hydrolysis by TRH-DE (Glp production); assay type: biochemical, porcine; conditions: for Rate of hydrolysis: peptide 1 mM, 37° C., Glp production by HPLC, mean±S.D.; for hydrolysis by TRH-DE (release of Glp): 1 mM peptide incubated with TRH-DE 18 h at 37° C., HPLC
T1 construct: The inventor purified TRH-DE from porcine brain according to purification procedures previously published by Dr. K. Bauer; from tissue; host or cells: porcine brain (TRH-DE); bovine kidney (DPP-IV, gift from Dr. C. H. Williams)
T1 sequence (A0A287AP33 1-1066): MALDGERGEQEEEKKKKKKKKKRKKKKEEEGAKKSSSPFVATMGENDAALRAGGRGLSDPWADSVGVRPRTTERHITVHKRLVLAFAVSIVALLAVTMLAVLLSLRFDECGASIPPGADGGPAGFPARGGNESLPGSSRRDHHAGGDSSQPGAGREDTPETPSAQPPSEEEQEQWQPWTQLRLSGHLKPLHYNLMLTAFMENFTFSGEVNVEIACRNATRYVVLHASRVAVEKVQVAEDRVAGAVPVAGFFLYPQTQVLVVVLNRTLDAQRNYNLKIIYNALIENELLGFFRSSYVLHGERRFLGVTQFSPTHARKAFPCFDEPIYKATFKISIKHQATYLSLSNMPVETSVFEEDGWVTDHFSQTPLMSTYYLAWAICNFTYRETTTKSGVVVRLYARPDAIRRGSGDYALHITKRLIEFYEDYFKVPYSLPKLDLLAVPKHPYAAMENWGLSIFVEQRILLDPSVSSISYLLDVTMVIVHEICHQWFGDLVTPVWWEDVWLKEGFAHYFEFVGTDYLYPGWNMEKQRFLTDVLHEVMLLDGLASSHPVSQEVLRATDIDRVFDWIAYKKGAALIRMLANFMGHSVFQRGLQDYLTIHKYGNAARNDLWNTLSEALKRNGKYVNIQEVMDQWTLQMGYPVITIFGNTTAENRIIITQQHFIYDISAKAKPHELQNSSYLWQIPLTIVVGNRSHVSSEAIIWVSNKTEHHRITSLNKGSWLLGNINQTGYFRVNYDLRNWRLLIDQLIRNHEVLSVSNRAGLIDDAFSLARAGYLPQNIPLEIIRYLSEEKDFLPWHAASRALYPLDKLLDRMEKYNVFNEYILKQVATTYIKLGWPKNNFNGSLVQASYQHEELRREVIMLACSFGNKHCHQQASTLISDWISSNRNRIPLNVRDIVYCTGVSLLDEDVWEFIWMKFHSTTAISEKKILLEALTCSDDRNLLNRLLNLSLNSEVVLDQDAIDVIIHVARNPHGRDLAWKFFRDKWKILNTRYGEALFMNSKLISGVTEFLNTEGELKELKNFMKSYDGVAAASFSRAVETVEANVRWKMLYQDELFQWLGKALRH
Experimental: (§1) The inventor purified TRH-DE from porcine brain according to purification procedures previously published by Dr. K. Bauer, (Max-Planck-Institut, Hannover, Germany) (1). TRH-DE was purified almost 20,000 fold. […] Dipeptidyl peptidase IV (DPP-IV) (EC 3.4.14.5), purified from bovine kidney (7.7 mg ml^−1, specific activity of 17.5 U mg^−1 with Gly-ProAMC as substrate), was obtained as a gilt from Dr. C. H. Williams (Queen's University Belfast, U.K). (DPP-IV was used as the coupling enzyme used in the fluorometric assays).
(§2) One unit (U) of enzyme activity was defined as that amount catalysing the formation of one μmol of product in one minute under the standard conditions employed. All incubations in the assays described below were carried out in 20 mM potassium phosphate buffer, pH 7.5, at 37° C.
Kinetic analysis of the peptide library using HPLC—The ability of each peptide in the library to act as a TRH-DE substrate was assessed using HPLC. As an initial screen, 1 mM peptide was incubated with 0.8 μg TRH-DE in a total volume of 1 ml for 18 h at 37° C. Control samples were included in which peptide (1 mM) or Glp (0.2 mM-0.8 mM) were incubated under identical conditions in the absence of TRH-DE. TRH-DE activity was terminated by the addition of TFA (0.15% v/v) and samples were then analysed using HPLC as described previously (24). Products resulting from TRH-DE hydrolysis could be separated on a C-18 reverse-phase column (Hypersil, UK) using a linear gradient of 0-70% acetonitrile in 0.08% (v/v) TFA. The concentration of Glp formed by the action of TRH-DE on the peptide library was measured by UV absorbance at 206 nm with a quantitative detection limit of 0.1 mM for a 40 μl injection volume, employing a signal to noise ratio of 10. Following the incubation of each peptide with TRH-DE, evidence of Glp in the sample was taken to indicate that the peptide was a TRH-DE substrate.
The rates of hydrolysis for each of those peptides identified as substrates were then compared by measuring Gip production using microassays with shorter incubation times. In these assays peptide (1 mM) was incubated at 37° C. in a total volume of 100 μl. 0.8-3.2 μg TRH-DE and incubations times of 5 min to 18 h were used routinely. Measurements were made in triplicate. The rate of TRH-OH hydrolysis was also measured by this method.

[2] = test system: TRH-DE; conditions: published observation (21); cited from earlier work
[3] = target: TRH receptors in rat cortical membranes; assay: radioligand binding to ^3H-3MeHis-TRH-labelled receptors in rat cortex; conditions: competition with 6-8 nM ^3H-3MeHis-TRH, Cheng-Prusoff
Experimental: Evaluation of the ability of TRH, Glp-Asn-ProNH2, and Glp-Asn-ProAMC to bind to ^3H-3MeHis-TRH-labelled receptors in rat cortex: Radioligand binding assays were conducted to investigate the possibility that the two TRH-DE inhibitors might exert their effects by acting independently at TRH receptors in the brain.
Cortex tissue from male Sprague-Dawley rats (250 g) was dissected out, weighed and homogenised in 30 volumes of ice-cold sodium phosphate buffer (0.02 M, pH 7.5). The homogenates were centrifuged at 30,000 g at 4° C. for 30 min. The supernatant was discarded and the pellet was resuspended at 100 mg wet wt/ml in buffer containing 177 μM bacitracin. […] Non-specific binding was defined in the presence of 10 μM TRH.
The statistical significance of differences between behavioural effects of treatments was determined using the Student's t-test or ANOVA, followed by a post-ANOVA test, as indicated. Radioligand binding data were analysed using non-linear curve fitting software (Prism, Graph Pad Software Inc.). IC50 values calculated from competition experiments were converted to Ki values using the Cheng-Prusoff (41) equation Ki=IC50/(1+L/Kd), where L=ligand concentration and Kd=the apparent dissociation constant for [^3H]-[3-MeHis]TRH.

[4] = target: T1, TRH-DE; assay: continuous coupled fluorometric TRH-DE assay (TRHAMC substrate, DPP-IV coupling enzyme); assay type: biochemical, porcine; conditions: for reversibility and time dependence of inhibition: preincubation with TRH-DE up to 75 min at 37° C., Glp-Gln-ProNH2 400, Glp-Asn-ProNH2 160, Glp-Asn-ProAMC 1 μM; for inhibition at 1000 µM: peptide 1 mM
Experimental: as §1, §2
Kinetic analysis of peptides that are not hydrolysed by TRH-DE. A recently-developed continuous coupled fluorometric assay (23) was used to investigate the ability of those library peptides that were not hydrolysed by TRH-DE to inhibit TRHAMC degradation by TRH-DE. In this assay, TRHAMC is the substrate and dipeptidyl peptidase IV (DPP-IV) (EC 3.4.14.5) is the coupling enzyme. The reaction sequence is:
The reaction was monitored continuously by measuring the increase in AMC fluorescence. A linear progress curve with no discernible lag period was observed when the reaction was monitored over a period of 10 minutes. Nevertheless, data sampling was not commenced until 100 s from the start of the reaction to ensure measurements were taken after a steady state had been reached (see Ref. 23).
In a preliminary experiment, the peptides were screened for their ability to inhibit TRH-DE activity. The initial rate of TRHAMC hydrolysis by TRH-DE was measured by incubating 5 μM TRHAMC with 1.23 μg DPP-IV and 0.32 μg TRH-DE, both in the absence and presence of each library peptide (1 mM final concentration) under standard assay conditions (23). In each case the percentage inhibition (i%) was calculated using the equation i%=100(1-vi/vo), where vi and vo are the initial velocities in the presence and absence of peptide, respectively.
Since these peptides were poor inhibitors they were not examined further. The Ki values for the remainder of the peptides were determined by measuring their effects on TRHAMC degradation by TRH-DE using the continuous assay. Data were collected in duplicate at five different substrate concentrations and at least three different concentrations of each peptide.
Reversibility and time dependence of the inhibition produced by Glp-Gln-ProNH2, Glp-Asn-ProNH2 and Glp-Asn-ProAMC were examined by initially preincubating TRH-DE with each peptide at 37° C. for various periods up to 75 min. To investigate time dependence, the enzyme-peptide solution was subsequently added to the reaction mixture containing TRHAMC, DPP-IV, buffer and peptide, and TRH-DE activity was measured using the continuous assay. The final concentration of Glp-Gln-ProNH2, Glp-Asn-ProNH2 and Glp-Asn-ProAMC used was 400, 160 and 1 μM, respectively. […] TRH-DE activity was not affected by pre-incubation at 37° C.
Fluorescence measurements were made using a Perkin Elmer LS 50B Luminescence Spectrometer fitted with a thernostated cell holder. Wavelengths for excitation and emission were set at 370 nm and 440 nm, respectively, with slit widths of 10 nm and 5 nm, respectively.

[5] = physchem
[6] = test system: Male Wistar rats; assay: behavioural effects (WDS, locomotion) after i.c.v. administration; assay type: in vivo, rat; conditions: 5 μg alone, 30 min
Experimental: Methods: Behavioural studies were conducted using experimentally naïve Male Wistar rats (200-250 g) maintained in a temperature controlled (21° C.), artificially-lighted (12 hr light cycle) room with free access to food and water. Behavioural effects of […] following intra-cerebroventricular (i.c.v.) administration: Animals were implanted with guide cannula aimed at the lateral cerebral ventricles (AP-0.92 mm, ML-1.5 mm, DV-2.6 mm relative to Bregma, atlas of Paxinos & Watson) under halothane anaesthesia. One week following surgery placement of the cannulae was assessed by the ability of a microinjection of angiotensin II (200 ng in 1 μl) to induce drinking behaviour. […] They were then administered either vehicle (1 μl 0.9% saline) or […] (5 μg in 1 μl) followed 1 minute later by vehicle (1 μl 0.9% saline) or TRH (5 μg in 1 μl). One minute after the last i.c.v. injection animals were placed back into the perspex cage and their behaviour monitored by a computer automated tracking system for 30 minutes (Ethovision Pro, Noldus) to provide measures of locomotor activity. Animals were videotaped for subsequent blind analysis of WDS behaviour by a trained observer. A threshold dose of 5 μg TRH was chosen for i.c.v. administration so that if […] enhanced responses to TRH, this would be clearly visible. The statistical significance of differences between behavioural effects of treatments was determined using the Student's t-test or ANOVA, followed by a post-ANOVA test, as indicated. Radioligand binding data were analysed using non-linear curve fitting software (Prism, Graph Pad Software Inc.). IC50 values calculated from competition experiments were converted to Ki values using the Cheng-Prusoff (41) equation Ki=IC50/(1+L/Kd), where L=ligand concentration and Kd=the apparent dissociation constant for [^3[…].

[7] = target: T1, TRH-DE; conditions: From Ref. 23 (inventor's publication); cited from earlier work
[8] = non-linear regression, five TRHAMC concentrations and at least three peptide concentrations, mean±S.D. (n=3)

Compound	Rate of hydrolysis [1]	Ki [4, 8] [µM]	reversibility and time dependence of inhibition [4]	inhibition at 1000 µM ([4]; 5 μM TRHAMC substrate) [%]	substrate for TRH-DE [2]	hydrolysis by TRH-DE (release of Glp) [1]	also measured
Cc1cc(=O)oc2cc(NC(=O)[C@@H]3CCCN3C(=O)[C@H](CC(N)=O)NC(=O)[C@@H]3CCC(=O)N3)ccc12 [Glp-Asn-ProAMC, Glp-Asn-Pro-7amido-4-methyl coumarin] ([pGlu]-Asn-Pro-{AMC})		0.97 ± 0.08	fully reversible and not time-dependent				pKi [3]: 4.32±0.24; Ki ([4]; calculated from percent inhibition measured in duplicate at 5 μM substrate): 0.41 µM; mode of inhibition of TRH-DE ([4]; continuous assay, Lineweaver-Burk plot): simple competitive inhibitors; inhibition at 1 µM ([4]; peptide 1 μM, 5 μM TRHAMC substrate): 50%; solubility [5]: 1000 µg/mL (≈ 2010 µM); number of WDS compared with vehicle [6]: Neither TRH nor Glp-Asn-ProAMC alone produced a significantly greater number of WDS than vehicle
Glp-His-ProOH	3.38 ± 0.18 (3) U mg^−1						Vmax ([1]; estimated from HPLC rates of hydrolysis using Vmax=vo{(Km+[S])/[S]}): 4.43 ± 0.24 (3) U mg^−1; Km [7]: 311 µM
NC(=O)[C@@H]1CCCN1C(=O)[C@H](CCC(=O)O)NC(=O)[C@@H]1CCC(=O)N1 [Glp-Glu-ProNH2] ([pGlu]-Glu-Pro-NH2)				17	is not	No detectable Glp	Ki ([4]; estimated from <20% inhibition at 1 mM peptide with the competitive inhibition relationship): > 1000 µM

The next lines start with results.

Rate of hydrolysis [1]	Ki [4, 8] [µM]	reversibility and time dependence of inhibition [4]	inhibition at 1000 µM ([4]; 5 μM TRHAMC substrate) [%]	Compound	substrate for TRH-DE [2]	hydrolysis by TRH-DE (release of Glp) [1]	also measured
1.56 ± 0.13 (5) U mg^−1				NC(=O)[C@@H]1CCCN1C(=O)[C@H](Cc1ccccc1)NC(=O)[C@@H]1CCC(=O)N1 [Glp-Phe-ProNH2] ([pGlu]-Phe-Pro-NH2)	is also a substrate for TRH-DE		
	69 ± 4.4	fully reversible and not time-dependent	83	NC(=O)CC[C@H](NC(=O)[C@@H]1CCC(=O)N1)C(=O)N1CCC[C@H]1C(N)=O [Glp-Gln-ProNH2] ([pGlu]-Gln-Pro-NH2)		not hydrolyzed at all; also recorded: No detectable Glp	
